Measured values taken from US6080724A, “Peptides which can be used as vectors for the intracellular addressing of active molecules” (Centre National de la Recherche Scientifique (CNRS), priority 1995, dated 2000).

Tested on: E15 cortex and striatum cells
Assay: Cellular localization of biotinylated peptides by confocal microscopy (fluorescent streptavidin)
Assay type: cell-based
Settings: 2 h
Description: The cells were then washed, fixed and stained with fluorescent streptavidin.
The entry of the peptides of Table II was tested only by confocal microscopy; indeed, the absence of lysine in these peptides makes the attachments very difficult and therefore requires a very rapid observation which is incompatible with transfers onto filters or ELISA tests (multiple washes).
The E15 cortex and striatum cells are cultured on glass coverslips at a density of 25,000 cells/cm^2 for 2 days. The peptides are all added at a final concentration of 20 μM. […] The sections observed by confocal microscopy are presented in FIGS. 3 (37° C.) and 4 (4° C.). The cells which have integrated the peptide appear fluorescent, on a black background.
E15 cortex and striatum cells are cultured on glass coverslips at a density of 25,000 cells/cm^2 for 2 days. The peptides are added at a final concentration of 20 μM for peptide 43-58 and of 2 μM for the others and the cells are incubated for 2 h at 37° C. […] The results are illustrated in FIG. 6.

Substance	internalization (20 μM, 37° C. and 4° C.)	nuclear addressing (20 μM, 37° C. and 4° C.)	internalization and cytoplasmic and nuclear addressing (localization) (2 μM, 37° C., streptavidin-FITC)
Biot-Apa-Arg-Gln-Pro-Lys-Ile-Trp-Phe-Pro-Asn-Arg-Arg-Lys-Pro-Trp-Lys-Lys [3Pro]	does not prevent internalization	appears to interfere with nuclear addressing	–
Biot-Apa-Arg-Leu-Arg-Arg-Leu-Leu-Arg-Arg-Leu-Leu-Arg-Arg-Leu-Arg-Arg [L/R]	–	–	found in a fraction which is apparently of the vesicular type, probably of endocytic character
